Converted amounts (≈) assume the structure as drawn.
What was measured:
[1] = tested on: S. aureus ATCC 29213 (MSSA); test: MIC determination; format: cell-based; details: Staphylococcus aureus
[2] = tested on: S. aureus ATCC 700698 (MRSA); test: MIC determination; format: cell-based; details: Staphylococcus aureus
[3] = tested on: S. aureus SAU-0167 (MRSA); test: MIC determination; format: cell-based; details: Staphylococcus aureus
[4] = tested on: S. aureus SAU-9922 (MRSA); test: MIC determination; format: cell-based; details: Staphylococcus aureus
S. epidermidis SEP-1024 = test: MIC determination; format: cell-based; details: Staphylococcus epidermidis, SEP1024
S. pneumoniae SPN-1169 = test: MIC determination; format: cell-based; details: Streptococcus pneumoniae, SPN1169
S. pyogenes SPY-0253 = test: MIC determination; format: cell-based; details: Streptococcus pyogenes, SPY0253
[5] = tested on: E. faecium EFA-0221 (VRE); test: MIC determination; format: cell-based; details: Enterococcus faecium
E. faecalis EFA-1299 = test: MIC determination; format: cell-based; details: Enterococcus faecalis, EFA1299
E. faecalis ATCC 29212 = test: MIC determination; format: cell-based; details: Enterococcus faecalis, ATCC29212
H. influenzae ATCC 49247 = test: MIC determination; format: cell-based; details: Haemophilus influenzae, ATCC49247
A. baumannii ATCC 17978 = test: MIC determination; format: cell-based; details: Acinetobacter baumannii, ATCC17978
[6] = tested on: A. baumannii ATCC BAA-1605; test: MIC determination; format: cell-based; details: Acinetobacter baumannii, ATCCBAA1605
[7] = tested on: K. pneumoniae ATCC BAA-1705; test: MIC determination; format: cell-based; details: Klebsiella pneumoniae, ATCCBAA1705
P. aeruginosa ATCC 27853 = test: MIC determination; format: cell-based; details: Pseudomonas aeruginosa, ATCC27853
E. coli ATCC 25922 = test: MIC determination; format: cell-based; details: Escherichia coli, ATCC25922
S. maltophilia STM-0001 = test: MIC determination; format: cell-based; details: Stenotrophomonas maltophilia, STM0001
[8] = tested on: M. tuberculosis H37Rv ATCC27294; test: MIC determination (Microplate Alamar Blue Assay); format: cell-based, Mycobacterium tuberculosis; details: Mycobacterium tuberculosis, 168 h, M. tuberculosis H37Rv ATCC27294, 7 days; read-out: MIC
[9] = tested on: M. bovis BCG (Pasteur 1173P2); test: microbe, parasite or virus in culture; format: cell-based; details: Mycobacterium tuberculosis variant bovis BCG, 168 h
M. smegmatis mc^2155 = test: MIC determination (Microplate Alamar Blue Assay); format: cell-based; details: Mycolicibacterium smegmatis; M. smegmatis mc^2155, 72 h
M. abscessus-GDI = test: MIC determination (Microplate Alamar Blue Assay); format: cell-based, Mycobacterium abscessus; details: Mycobacteroides abscessus, 72 h
M. abscessus-C16 = test: MIC determination (Microplate Alamar Blue Assay); format: cell-based, Mycobacterium abscessus; details: Mycobacteroides abscessus; M. abscessus-C16, 72 h
M. abscessus-C28 = test: MIC determination (Microplate Alamar Blue Assay); format: cell-based, Mycobacterium abscessus; details: Mycobacteroides abscessus, 72 h
M. abscessus-C58 = test: MIC determination (Microplate Alamar Blue Assay); format: cell-based, Mycobacterium abscessus; details: Mycobacteroides abscessus; M. abscessus-C58, 72 h

| Structure (SMILES) | MIC [1] [µg/mL] | MIC [2] [µg/mL] | MIC [3] [µg/mL] | MIC [4] [µg/mL] | MIC (S. epidermidis SEP-1024) [µg/mL] | MIC (S. pneumoniae SPN-1169) [µg/mL] | MIC (S. pyogenes SPY-0253) [µg/mL] | MIC [5] [µg/mL] | MIC (E. faecalis EFA-1299) [µg/mL] | MIC (E. faecalis ATCC 29212) [µg/mL] | MIC (A. baumannii ATCC 17978) [µg/mL] | MIC [7] [µg/mL] | MIC (P. aeruginosa ATCC 27853) [µg/mL] | MIC (E. coli ATCC 25922) [µg/mL] | MIC (S. maltophilia STM-0001) [µg/mL] | MIC (M. abscessus-GDI) [µg/mL] | MIC (M. abscessus-C16) [µg/mL] | MIC (M. abscessus-C28) [µg/mL] | MIC (M. abscessus-C58) [µg/mL] | other results |
| --- | --- | --- | --- | --- | --- | --- | --- | --- | --- | --- | --- | --- | --- | --- | --- | --- | --- | --- | --- | --- |
| CO[C@H]1/C=C/O[C@@]2(C)Oc3c(C)c(O)c4c(O)c(c(/C=N/N5CCN(C)CC5)c(O)c4c3C2=O)NC(=O)/C(C)=C\C=C\[C@H](C)[C@H](O)[C@@H](C)[C@@H](O)[C@@H](C)[C@H](OC(C)=O)[C@@H]1C [Rifampicin] | 0.0063 (≈ 0.00766 µM) | ≤ 0.031 | ≤ 0.031 | ≤ 0.031 | ≤ 0.031 | ≤ 0.031 | 0.063 (≈ 0.0766 µM) | 4 (≈ 4.86 µM) | 1 (≈ 1.22 µM) | 2 (≈ 2.43 µM) | 2 (≈ 2.43 µM) | > 32 | > 32 | 8 (≈ 9.72 µM) | 16 (≈ 19.4 µM) | > 20 | > 20 | > 20 | > 20 | MIC (H. influenzae ATCC 49247): 0.25 µg/mL (≈ 0.304 µM); MIC [6]: 4 µg/mL (≈ 4.86 µM); MIC [8]: 0.031 µg/mL (≈ 0.0377 µM); MIC [9]: ≤ 0.031 µg/mL; MIC (M. smegmatis mc^2155): 13.3 µg/mL (≈ 16.1 µM) |
| NCC[C@H](O)C(=O)N[C@@H]1C[C@H](N)[C@@H](O[C@H]2O[C@H](CN)[C@@H](O)[C@H](O)[C@H]2O)[C@H](O)[C@H]1O[C@H]1O[C@H](CO)[C@@H](O)[C@H](N)[C@H]1O [Amikacin] | 8 (≈ 13.7 µM) | > 32 | > 32 | 2 (≈ 3.42 µM) | ≤ 1 | > 32 | 32 (≈ 54.6 µM) | > 32 | > 32 | > 32 | 2 (≈ 3.42 µM) | > 32 | 8 (≈ 13.7 µM) | 8 (≈ 13.7 µM) | > 32 | 6.38 (≈ 10.9 µM) | 12.7 (≈ 21.7 µM) | 14.5 (≈ 24.7 µM) | 12.8 (≈ 21.9 µM) | – |

Reference: PMC10302868 (Molecules, 2023)
